Measurements published in ChEMBL document CHEMBL5465560, “Selectivity Literature for EUbOPEN Chemogenomic Library” (2024).

Key:
[1] = target: Serine/threonine-protein kinase tousled-like 2 (Homo sapiens) (UniProt Q86UE8); assay: Selectivity interaction (Ambit KINOMEscan and KiNATiv profiling in Jurkat cells) EUB0000090b TLK2; assay type: cell-based; conditions: at 1 µM
[2] = target: Phosphatidylinositol 4,5-bisphosphate 3-kinase catalytic subunit alpha isoform (Homo sapiens) (UniProt P42336); assay: (§1) Selectivity interaction (KinomeScan (DiscoverX)) EUB0001619a PIK3CA; conditions: at 1 µM
Phosphatidylinositol 4,5-bisphosphate 3-kinase catalytic subunit alpha isoform (Homo sapiens), sequence (P42336 whole entry, canonical isoform): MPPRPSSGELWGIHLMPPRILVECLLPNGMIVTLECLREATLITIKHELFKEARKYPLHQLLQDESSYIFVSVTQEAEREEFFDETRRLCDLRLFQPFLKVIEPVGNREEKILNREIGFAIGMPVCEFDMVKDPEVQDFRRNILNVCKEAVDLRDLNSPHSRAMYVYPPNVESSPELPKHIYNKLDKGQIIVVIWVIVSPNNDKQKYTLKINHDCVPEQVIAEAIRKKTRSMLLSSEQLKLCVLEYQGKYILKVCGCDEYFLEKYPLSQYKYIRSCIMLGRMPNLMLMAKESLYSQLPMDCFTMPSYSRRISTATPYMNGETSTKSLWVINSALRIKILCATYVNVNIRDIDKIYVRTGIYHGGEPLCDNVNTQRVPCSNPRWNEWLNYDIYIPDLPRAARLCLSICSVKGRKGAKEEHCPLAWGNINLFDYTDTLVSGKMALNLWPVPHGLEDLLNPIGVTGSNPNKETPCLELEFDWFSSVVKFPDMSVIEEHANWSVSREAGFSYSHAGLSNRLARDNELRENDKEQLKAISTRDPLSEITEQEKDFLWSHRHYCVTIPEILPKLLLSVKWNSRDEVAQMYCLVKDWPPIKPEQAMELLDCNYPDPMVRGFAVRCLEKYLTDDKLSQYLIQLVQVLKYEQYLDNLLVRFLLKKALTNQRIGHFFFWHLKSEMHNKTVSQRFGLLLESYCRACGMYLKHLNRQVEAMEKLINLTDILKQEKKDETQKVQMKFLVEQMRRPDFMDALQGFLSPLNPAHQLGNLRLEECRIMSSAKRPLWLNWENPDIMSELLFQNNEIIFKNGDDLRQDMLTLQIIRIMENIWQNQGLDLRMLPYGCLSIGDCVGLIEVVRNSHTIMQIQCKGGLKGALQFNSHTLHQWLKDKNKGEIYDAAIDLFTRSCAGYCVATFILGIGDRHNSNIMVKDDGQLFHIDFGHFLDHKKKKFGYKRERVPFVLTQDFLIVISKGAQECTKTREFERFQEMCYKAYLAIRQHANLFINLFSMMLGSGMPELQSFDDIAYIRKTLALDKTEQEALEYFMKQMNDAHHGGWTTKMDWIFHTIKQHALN

[3] = test system: Phosphatidylinositol 4,5-bisphosphate 3-kinase catalytic subunit alpha isoform (Homo sapiens), P42336 [I800L]; assay: as §1; conditions: at 1 µM
Phosphatidylinositol 4,5-bisphosphate 3-kinase catalytic subunit alpha isoform (Homo sapiens), P42336 [I800L], sequence (P42336 whole entry I800L, canonical isoform): as the sequence (P42336 whole entry, canonical isoform) above, with I800L counted along it

[4] = test system: Phosphatidylinositol 4,5-bisphosphate 3-kinase catalytic subunit alpha isoform (Homo sapiens), P42336 [E545A]; assay: as §1; conditions: at 1 µM
Phosphatidylinositol 4,5-bisphosphate 3-kinase catalytic subunit alpha isoform (Homo sapiens), P42336 [E545A], sequence (P42336 whole entry E545A, canonical isoform): as the sequence (P42336 whole entry, canonical isoform) above, with E545A counted along it

[5] = test system: Phosphatidylinositol 4,5-bisphosphate 3-kinase catalytic subunit alpha isoform (Homo sapiens), P42336 [H1047Y]; assay: as §1; conditions: at 1 µM
Phosphatidylinositol 4,5-bisphosphate 3-kinase catalytic subunit alpha isoform (Homo sapiens), P42336 [H1047Y], sequence (P42336 whole entry H1047Y, canonical isoform): as the sequence (P42336 whole entry, canonical isoform) above, with H1047Y counted along it

[6] = test system: Phosphatidylinositol 4,5-bisphosphate 3-kinase catalytic subunit alpha isoform (Homo sapiens), P42336 [C420R]; assay: as §1; conditions: at 1 µM
Phosphatidylinositol 4,5-bisphosphate 3-kinase catalytic subunit alpha isoform (Homo sapiens), P42336 [C420R], sequence (P42336 whole entry C420R, canonical isoform): as the sequence (P42336 whole entry, canonical isoform) above, with C420R counted along it

[7] = test system: Phosphatidylinositol 4,5-bisphosphate 3-kinase catalytic subunit alpha isoform (Homo sapiens), P42336 [Q546K]; assay: as §1; conditions: at 1 µM
Phosphatidylinositol 4,5-bisphosphate 3-kinase catalytic subunit alpha isoform (Homo sapiens), P42336 [Q546K], sequence (P42336 whole entry Q546K, canonical isoform): as the sequence (P42336 whole entry, canonical isoform) above, with Q546K counted along it

[8] = test system: Phosphatidylinositol 4,5-bisphosphate 3-kinase catalytic subunit alpha isoform (Homo sapiens), P42336 [H1047L]; assay: as §1; conditions: at 1 µM
Phosphatidylinositol 4,5-bisphosphate 3-kinase catalytic subunit alpha isoform (Homo sapiens), P42336 [H1047L], sequence (P42336 whole entry H1047L, canonical isoform): as the sequence (P42336 whole entry, canonical isoform) above, with H1047L counted along it

[9] = test system: Phosphatidylinositol 4,5-bisphosphate 3-kinase catalytic subunit alpha isoform (Homo sapiens), P42336 [M1043I]; assay: as §1; conditions: at 1 µM
Phosphatidylinositol 4,5-bisphosphate 3-kinase catalytic subunit alpha isoform (Homo sapiens), P42336 [M1043I], sequence (P42336 whole entry M1043I, canonical isoform): as the sequence (P42336 whole entry, canonical isoform) above, with M1043I counted along it

[10] = test system: Phosphatidylinositol 4,5-bisphosphate 3-kinase catalytic subunit alpha isoform (Homo sapiens), P42336 [E545K]; assay: as §1; conditions: at 1 µM
Phosphatidylinositol 4,5-bisphosphate 3-kinase catalytic subunit alpha isoform (Homo sapiens), P42336 [E545K], sequence (P42336 whole entry E545K, canonical isoform): as the sequence (P42336 whole entry, canonical isoform) above, with E545K counted along it

[11] = test system: Phosphatidylinositol 4,5-bisphosphate 3-kinase catalytic subunit alpha isoform (Homo sapiens), P42336 [E542K]; assay: as §1; conditions: at 1 µM
Phosphatidylinositol 4,5-bisphosphate 3-kinase catalytic subunit alpha isoform (Homo sapiens), P42336 [E542K], sequence (P42336 whole entry E542K, canonical isoform): as the sequence (P42336 whole entry, canonical isoform) above, with E542K counted along it

[12] = target: Ribosomal protein S6 kinase alpha-1 (Homo sapiens, UniProt Q15418); assay: Selectivity interaction (ActivX KiNativ screen (ex vivo kinase selectivity in human PBMCs)) EUB0001619a RPS6KA1; assay type: cell-based; conditions: PBMC, at 1 µM
Ribosomal protein S6 kinase alpha-1, sequence (Q15418 whole entry): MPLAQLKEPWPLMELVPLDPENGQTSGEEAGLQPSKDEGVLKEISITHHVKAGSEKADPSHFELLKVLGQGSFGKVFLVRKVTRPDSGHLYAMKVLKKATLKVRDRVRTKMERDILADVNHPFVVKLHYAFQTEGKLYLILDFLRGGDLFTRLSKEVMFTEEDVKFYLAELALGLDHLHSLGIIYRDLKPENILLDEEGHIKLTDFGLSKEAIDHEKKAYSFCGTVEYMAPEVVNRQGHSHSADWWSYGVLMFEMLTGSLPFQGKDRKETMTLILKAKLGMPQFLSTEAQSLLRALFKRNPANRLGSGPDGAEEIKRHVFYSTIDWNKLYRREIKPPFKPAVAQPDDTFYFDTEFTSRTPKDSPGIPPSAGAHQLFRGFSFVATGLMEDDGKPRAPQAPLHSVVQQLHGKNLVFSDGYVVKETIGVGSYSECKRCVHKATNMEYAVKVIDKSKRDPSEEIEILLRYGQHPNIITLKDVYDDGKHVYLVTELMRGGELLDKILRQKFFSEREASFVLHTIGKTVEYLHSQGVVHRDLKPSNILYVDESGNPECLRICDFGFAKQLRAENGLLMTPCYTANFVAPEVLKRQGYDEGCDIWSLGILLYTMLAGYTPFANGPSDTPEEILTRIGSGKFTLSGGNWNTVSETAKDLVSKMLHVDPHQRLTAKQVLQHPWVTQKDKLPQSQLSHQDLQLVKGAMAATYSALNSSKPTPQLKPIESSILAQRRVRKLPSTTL

[13] = target: T1, Inhibitor of nuclear factor kappa-B kinase subunit alpha (Homo sapiens) (UniProt O15111); assay: Selectivity interaction (KinomeScan (DiscoverX)) EUB0000045b CHUK
T1 sequence (whole entry): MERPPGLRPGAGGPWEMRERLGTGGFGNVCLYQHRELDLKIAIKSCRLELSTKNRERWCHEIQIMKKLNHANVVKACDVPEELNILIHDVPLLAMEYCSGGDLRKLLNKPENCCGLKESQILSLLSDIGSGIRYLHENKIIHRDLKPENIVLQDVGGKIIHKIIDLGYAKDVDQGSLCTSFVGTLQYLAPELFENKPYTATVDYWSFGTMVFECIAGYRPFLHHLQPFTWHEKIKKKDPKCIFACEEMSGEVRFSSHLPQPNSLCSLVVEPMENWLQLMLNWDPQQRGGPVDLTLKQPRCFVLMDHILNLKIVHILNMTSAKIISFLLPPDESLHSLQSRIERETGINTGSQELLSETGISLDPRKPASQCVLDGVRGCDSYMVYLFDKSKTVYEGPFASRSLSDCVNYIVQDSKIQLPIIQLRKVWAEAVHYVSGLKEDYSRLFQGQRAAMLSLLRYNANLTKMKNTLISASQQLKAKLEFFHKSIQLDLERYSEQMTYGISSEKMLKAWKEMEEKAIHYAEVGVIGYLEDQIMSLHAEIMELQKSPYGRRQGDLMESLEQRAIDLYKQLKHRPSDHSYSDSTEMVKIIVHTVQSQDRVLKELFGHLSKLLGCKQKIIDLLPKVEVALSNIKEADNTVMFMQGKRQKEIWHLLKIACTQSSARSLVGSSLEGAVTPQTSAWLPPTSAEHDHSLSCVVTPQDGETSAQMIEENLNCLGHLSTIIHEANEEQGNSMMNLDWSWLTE

[14] = target: Dual specificity protein kinase CLK1 (Homo sapiens, UniProt P49759); assay: Selectivity interaction (KinomeScan (DiscoverX)) EUB0000092b CLK1; conditions: at 10 µM
Dual specificity protein kinase CLK1, sequence (P49759 whole entry, looked up): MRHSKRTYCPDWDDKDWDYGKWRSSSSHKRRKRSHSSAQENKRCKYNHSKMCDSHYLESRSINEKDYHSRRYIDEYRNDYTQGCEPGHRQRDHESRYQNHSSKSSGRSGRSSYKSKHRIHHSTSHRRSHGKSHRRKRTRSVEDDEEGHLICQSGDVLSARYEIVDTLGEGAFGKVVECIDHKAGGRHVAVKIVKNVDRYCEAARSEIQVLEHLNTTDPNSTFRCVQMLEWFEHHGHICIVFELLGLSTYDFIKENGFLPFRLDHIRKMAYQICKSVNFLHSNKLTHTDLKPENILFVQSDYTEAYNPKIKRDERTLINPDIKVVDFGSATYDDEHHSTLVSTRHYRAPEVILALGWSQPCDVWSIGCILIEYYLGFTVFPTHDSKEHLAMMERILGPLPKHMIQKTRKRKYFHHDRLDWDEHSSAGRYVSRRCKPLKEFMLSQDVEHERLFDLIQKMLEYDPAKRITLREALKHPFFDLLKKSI

[15] = target: Serine/threonine-protein kinase MRCK beta (Homo sapiens) (UniProt Q9Y5S2); assay: Selectivity interaction (Kinase panel (Z-LYTE Assay)) EUB0001632a CDC42BPB; conditions: at 10 µM
[16] = target: T2, MAP/microtubule affinity-regulating kinase 4 (Homo sapiens) (UniProt Q96L34); assay: Selectivity interaction (KinomeScan (DiscoverX)) EUB0000695a MARK4; conditions: at 100 nM
T2 sequence (whole entry): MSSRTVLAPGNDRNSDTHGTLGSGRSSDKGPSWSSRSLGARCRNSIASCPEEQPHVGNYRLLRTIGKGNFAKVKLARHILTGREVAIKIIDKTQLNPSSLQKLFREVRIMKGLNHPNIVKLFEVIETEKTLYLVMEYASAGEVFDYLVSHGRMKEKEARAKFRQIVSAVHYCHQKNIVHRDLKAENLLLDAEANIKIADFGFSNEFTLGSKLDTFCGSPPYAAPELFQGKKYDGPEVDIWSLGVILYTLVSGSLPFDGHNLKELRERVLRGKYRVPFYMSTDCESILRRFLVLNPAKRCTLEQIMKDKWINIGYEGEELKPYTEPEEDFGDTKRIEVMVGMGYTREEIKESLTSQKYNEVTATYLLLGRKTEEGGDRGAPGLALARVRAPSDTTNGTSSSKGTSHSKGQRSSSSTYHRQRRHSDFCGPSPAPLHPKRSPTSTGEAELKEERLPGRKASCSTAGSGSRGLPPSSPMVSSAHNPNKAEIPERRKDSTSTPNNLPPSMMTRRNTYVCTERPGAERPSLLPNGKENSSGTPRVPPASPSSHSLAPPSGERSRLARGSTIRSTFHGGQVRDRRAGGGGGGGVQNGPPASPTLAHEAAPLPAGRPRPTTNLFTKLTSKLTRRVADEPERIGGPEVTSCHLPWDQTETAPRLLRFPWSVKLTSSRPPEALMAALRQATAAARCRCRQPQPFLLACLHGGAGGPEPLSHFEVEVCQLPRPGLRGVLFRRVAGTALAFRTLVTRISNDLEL

Serine/threonine-protein kinase tousled-like 2 (Homo sapiens), sequence (Q86UE8 whole entry, looked up, canonical isoform): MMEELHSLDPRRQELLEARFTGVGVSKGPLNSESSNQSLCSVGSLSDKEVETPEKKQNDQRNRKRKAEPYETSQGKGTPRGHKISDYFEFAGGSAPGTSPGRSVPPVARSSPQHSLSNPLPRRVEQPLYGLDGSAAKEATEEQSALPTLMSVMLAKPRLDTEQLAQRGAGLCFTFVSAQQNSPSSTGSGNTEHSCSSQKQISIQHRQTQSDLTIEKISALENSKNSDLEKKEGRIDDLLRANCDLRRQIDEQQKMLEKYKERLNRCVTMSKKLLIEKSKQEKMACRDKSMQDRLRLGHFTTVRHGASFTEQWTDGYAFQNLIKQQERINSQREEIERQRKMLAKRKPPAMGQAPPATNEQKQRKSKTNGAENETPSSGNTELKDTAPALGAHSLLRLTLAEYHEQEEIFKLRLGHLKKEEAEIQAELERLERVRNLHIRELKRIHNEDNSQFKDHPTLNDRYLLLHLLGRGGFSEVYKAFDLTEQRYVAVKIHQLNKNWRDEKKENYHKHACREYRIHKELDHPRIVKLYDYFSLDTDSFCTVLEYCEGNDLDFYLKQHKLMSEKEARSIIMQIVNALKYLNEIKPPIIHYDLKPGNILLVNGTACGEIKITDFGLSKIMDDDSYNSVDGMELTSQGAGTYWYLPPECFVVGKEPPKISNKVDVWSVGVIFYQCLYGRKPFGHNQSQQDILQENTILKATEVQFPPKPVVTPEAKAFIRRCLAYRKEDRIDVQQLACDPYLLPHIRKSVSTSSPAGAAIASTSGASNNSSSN

CN(C)C/C=C/C(=O)Nc1ccc(C(=O)N2CCCC(Nc3ncc(Cl)c(-c4c[nH]c5ccccc45)n3)C2)cc1 (configuration not stated)
% of control [1]: 93%

N#Cc1cccc(-c2c[nH]c3ncnc(N4CCOCC4)c23)c1
% of control [2]: 100% | % of control [3]: 88% | % of control [4]: 100% | % of control [5]: 76% | % of control [6]: 95% | % of control [7]: 97% | % of control [8]: 90% | % of control [9]: 100% | % of control [10]: 96% | % of control [11]: 90% | % of inhibition [12]: -1%

C=CC(=O)Nc1cc(-n2c(=O)ccc3cnc4ccc(-c5ccc(NS(C)(=O)=O)cc5)cc4c32)ccc1C
% of control ([13]; at 1 µM): 100% | % of control ([13]; at 10 µM): 100%

CCC(=O)N1CCN(c2ccc(-n3c(=O)ccc4cnc5ccc(-c6cnc7ccccc7c6)cc5c43)cc2C(F)(F)F)CC1
% of control [14]: 49%

Cn1cc(-n2cnc3c(NCc4nc5cc(Cl)c(Cl)cc5[nH]4)nc(N4CCOCC4)nc32)cn1
% of control [15]: 3.7%

Cc1cc(F)c(C(=O)Nc2cccc(-c3nncn3C(C)C)n2)cc1-n1cnc(C2CC2)c1
% of control [16]: 100%
